In patent US4028383A, “Indolopyrones having antiallergic activity” (Warner-Lambert Company, priority 1975, dated 1977):

System: PCA reaction
Assay: passive cutaneous anaphylaxis (PCA) procedure
Assay type: in vivo, male rats
Settings: for % Inhibition: rats, 30 minutes prior to challenge
Description: In this procedure, male rats, between 180 and 200 grams in weight are passively sensitized forty-eight or seventy-two hours prior to test with rat sera containing reagintype antibodies. These sera are injected intradermally in four separate sites, two on each side of the ventral midline. Dose volume is 0.1 ml.
On the test-day animals receive drug or vehicle (placebo) 30 minutes prior to challenge. Test compounds are given i.p. on an mg/kg basis; usual volume is 0.5 ml/100 g body weight. Controls receive the vehicle, on the same weight-volume basis.
The challenging dose of 1.0 ml of Antigen-Evans Blue is administered i.v. This is prepared from either Ovalbumin or dinitrophenylated bovine gamma globulin, 10 mg, together with 5 ml of 0.5% Evans Blue, U.S.P., and 5 ml of normal saline. At 30 minutes after challenge each rat is sacrificed. A section of skin that includes the four sensitizing injection sites is removed.
Reaction is indicated by a blue coloration of the site and scored on the basis of color intensity. Size of the site is also reported.
Data is reported as the arithmetic mean score of a specific site for that group of five animals; the size of the spot is also reported as the mean for the group.
The relation between dilution of antibody and mean spot diameters approximates a straight line which is constructed by the method of least squares for the control animals. The maximum antibody concentration is set as "100% reactivity", with the extrapolated "zero" antibody concentration being 0%. Using this line the diameter at the highest antibody concentrations in any treated group is expressed as a percent of the control, i.e. "% inhibition." The treatment is judged "active" if the inhibition is 50% or greater.

Cn1c2ccccc2c2oc(C(=O)O)cc(=O)c21 [Example 5, 4,5-dihydro-5-methyl-4-oxopyrano[3,2-b]indole-2-carboxylic acid]
% Inhibition (1.0 mg/kg I.P.): 30% | % Inhibition (5.0 mg/kg I.P.): 100% | % Inhibition (10.0 mg/kg I.P.): 100% | % Inhibition (25.0 mg/kg I.P.): 100% | antiallergic activity in passive cutaneous anaphylaxis (male rats, i.p. 30 minutes prior to challenge): highly effective as an antiallergic
